pEC50: −log10 of the molar value.

This note sets out measurements from patent publication US9802927B2, “Oxadiazine compounds and methods of use thereof” (Denali Therapeutics, Inc., priority 2015, dated 2017).

The test concerns Aβ42. Kind of test: In vitro cell screening assay in H4 cells expressing human APP751: Aβ42 by sandwich ELISA. It is filed as cell-based. The note with it: compounds 0.003-10 μM, incubated overnight (16-18 h), sandwich ELISA of supernatant. Summed up: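 Secreted Aβ42 measured by sandwich ELISA, C-terminal-specific capture and 4G8-HRP detection, TMB read at 450 nm, from supernatants of APP751-expressing H4 cells exposed overnight (16-18 h) to 0.003-10 μM compound in Pro293 medium, 0.33% DMSO. Data scaled between DMSO and DAPT controls; EC50 from variable-slope nonlinear regression.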
(In general: ELISA stands for enzyme-linked immunosorbent assay.)

For `COc1nc(C2=NOCC(c3cn(C)c4cc(C#N)ccc34)N2)ccc1-n1cnc(C)c1` (single isomer, unassigned; (+)) [Example 249B, (+)-3-(3-(6-methoxy-5-(4-methyl-1H-imidazol-1-yl)pyridin-2-yl)-5,6-dihydro-4H-1,2,4-oxadiazin-5-yl)-1-methyl-1H-indole-6-carbonitrile], the pEC50 (as a rule, −log10 of the EC50, conventionally taken in molar units) is 7.52. The same measure, in the same setting: the figure for `COc1nc(C2=NOCC(c3ccc(C(F)(F)F)c(F)c3)N2)ccc1-n1cnc(C)c1` (single isomer, unassigned) [Example 121A, 5-(3-fluoro-4-(trifluoromethyl)phenyl)-3-(6-methoxy-5-(4-methyl-1H-imidazol-1-yl)pyridin-2-yl)-5,6-dihydro-4H-1,2,4-oxadiazine] is less than 5.52. Same read-out and setting: next, `COc1nc(C2=NOCC(c3ccc4sc(C)nc4c3)N2)ccc1-n1cnc(C)c1` (single isomer, unassigned; (-)) [Example 215A, (−)-3-(6-methoxy-5-(4-methyl-1H-imidazol-1-yl)pyridin-2-yl)-5-(2-methylbenzo[d]thiazol-5-yl)-5,6-dihydro-4H-1,2,4-oxadiazine]: 5.66; `COc1nc(C2=NOCC(c3cc4cc(C(F)(F)F)ccc4o3)N2)ccc1-n1cnc(C)c1` (single isomer, unassigned; (+)) [Example 259B, (+)-3-(6-methoxy-5-(4-methyl-1H-imidazol-1-yl)pyridin-2-yl)-5-(5-(trifluoromethyl)benzofuran-2-yl)-5,6-dihydro-4H-1,2,4-oxadiazine]: 8.05; `COc1nc(C2=NOCC(CC(C)C)N2)ccc1-n1cnc(C)c1` (single isomer, unassigned; (+)) [Example 154A, (+)-5-isobutyl-3-(6-methoxy-5-(4-methyl-1H-imidazol-1-yl)pyridin-2-yl)-5,6-dihydro-4H-1,2,4-oxadiazine]: 6.03. `COc1nc(C2=NOCC(c3ccc4scnc4c3)N2)ccc1-n1cnc(C)c1` (single isomer, unassigned; (-)) [Example 240A, (−)-5-(benzo[d]thiazol-5-yl)-3-(6-methoxy-5-(4-methyl-1H-imidazol-1-yl)pyridin-2-yl)-5,6-dihydro-4H-1,2,4-oxadiazine] showed a pEC50 of less than 5.52.

In turn, `COc1nc(C2=NOCC(c3cn(C)c4cc(C#N)ccc34)N2)ccc1-n1cnc(C)c1` (single isomer, unassigned; (-)) [Example 249A, (−)-3-(3-(6-methoxy-5-(4-methyl-1H-imidazol-1-yl)pyridin-2-yl)-5,6-dihydro-4H-1,2,4-oxadiazin-5-yl)-1-methyl-1H-indole-6-carbonitrile] showed a pEC50 of 6.37. On to `COc1nc(C2=NOCC(c3ccc(C(C)(C)O)cc3)N2)ccc1-n1cnc(C)c1` (single isomer, unassigned; (+)) [Example 268B, (+)-2-(4-(3-(6-methoxy-5-(4-methyl-1H-imidazol-1-yl)pyridin-2-yl)-5,6-dihydro-4H-1,2,4-oxadiazin-5-yl)phenyl)propan-2-ol], for which the pEC50 is 6.57. Compound `COc1nc(C2=NOCC(c3cn(C)c4ccccc34)N2)ccc1-n1cnc(C)c1` (single isomer, unassigned; (+)) [Example 189A, (+)-3-(6-methoxy-5-(4-methyl-1H-imidazol-1-yl)pyridin-2-yl)-5-(1-methyl-1H-indol-3-yl)-5,6-dihydro-4H-1,2,4-oxadiazine] had a pEC50 of 7.62. `COc1nc(C2=NOCC(c3cc4cccc(F)c4o3)N2)ccc1-n1cnc(C)c1` (single isomer, unassigned; (+)) [Example 89B, (+)-5-(7-fluorobenzofuran-2-yl)-3-(6-methoxy-5-(4-methyl-1H-imidazol-1-yl)pyridin-2-yl)-5,6-dihydro-4H-1,2,4-oxadiazine] gave a pEC50 of 7.35. `COc1ccc2c(c1)c(C1CON=C(c3ccc(-n4cnc(C)c4)c(OC)n3)N1)cn2C` (single isomer, unassigned; (+)) [Example 250B, (+)-5-(5-methoxy-1-methyl-1H-indol-3-yl)-3-(6-methoxy-5-(4-methyl-1H-imidazol-1-yl)pyridin-2-yl)-5,6-dihydro-4H-1,2,4-oxadiazine]: the pEC50 was 7.80.

Turning to `COc1nc(C2=NOCC(c3cn(C)c4c(F)cccc34)N2)ccc1-n1cnc(C)c1` (single isomer, unassigned; (+)) [Example 231B, (+)-5-(7-fluoro-1-methyl-1H-indol-3-yl)-3-(6-methoxy-5-(4-methyl-1H-imidazol-1-yl)pyridin-2-yl)-5,6-dihydro-4H-1,2,4-oxadiazine], the negative-log EC50 (pEC50) was 7.97.

Compound `COc1nc(C2=NOCC(c3cn(C)c4cc(F)ccc34)N2)ccc1-n1cnc(C)c1` (single isomer, unassigned; (-)) [Example 192A, (−)-5-(6-fluoro-1-methyl-1H-indol-3-yl)-3-(6-methoxy-5-(4-methyl-1H-imidazol-1-yl)pyridin-2-yl)-5,6-dihydro-4H-1,2,4-oxadiazine] gave a pEC50 of 6.77. As for `COc1nc(C2=NOCC(c3ccc(Cl)c(C(F)F)c3)N2)ccc1-n1cnc(C)c1` (single isomer, unassigned; (+)) [Example 270B, (+)-5-(4-chloro-3-(difluoromethyl)phenyl)-3-(6-methoxy-5-(4-methyl-1H-imidazol-1-yl)pyridin-2-yl)-5,6-dihydro-4H-1,2,4-oxadiazine], the pEC50 was 7.67.

On to `COc1nc(C2=NOCC(c3cc(F)cc(Cl)c3)N2)ccc1-n1cnc(C)c1` (single isomer, unassigned; (-)) [Example 111A, (−)-5-(3-chloro-5-fluorophenyl)-3-(6-methoxy-5-(4-methyl-1H-imidazol-1-yl)pyridin-2-yl)-5,6-dihydro-4H-1,2,4-oxadiazine], for which the pEC50 is less than 5.52. The same measure, in the same setting: next, `COc1nc(C2=NOCC(c3cn(C)c4cccc(C#N)c34)N2)ccc1-n1cnc(C)c1` (single isomer, unassigned; (-)) [Example 247B, (−)-3-(3-(6-methoxy-5-(4-methyl-1H-imidazol-1-yl)pyridin-2-yl)-5,6-dihydro-4H-1,2,4-oxadiazin-5-yl)-1-methyl-1H-indole-4-carbonitrile]: 7.10. For the setting “Homo sapiens”, `COc1nc(C2=NOCC(c3cn(C)c4cccc(C#N)c34)N2)ccc1-n1cnc(C)c1` (single isomer, unassigned; (+)) [Example 247A, (+)-3-(3-(6-methoxy-5-(4-methyl-1H-imidazol-1-yl)pyridin-2-yl)-5,6-dihydro-4H-1,2,4-oxadiazin-5-yl)-1-methyl-1H-indole-4-carbonitrile] showed a pEC50 of 7.33.

The compound `COc1nc(C2=NOCC(C3CCCCC3)N2)ccc1-n1cnc(C)c1` (single isomer, unassigned; (-)) [Example 61A, (−)-5-cyclohexyl-3-(6-methoxy-5-(4-methyl-1H-imidazol-1-yl)pyridin-2-yl)-5,6-dihydro-4H-1,2,4-oxadiazine] showed a pEC50 of 6.11. Consider `COc1nc(C2=NOCC(c3cnc4ccc(Cl)cn34)N2)ccc1-n1cnc(C)c1` (single isomer, unassigned; (+)) [Example 269B, (+)-5-(6-chloroimidazo[1,2-a]pyridin-3-yl)-3-(6-methoxy-5-(4-methyl-1H-imidazol-1-yl)pyridin-2-yl)-5,6-dihydro-4H-1,2,4-oxadiazine], for which the pEC50 was 6.62. `CCn1cc(C2CON=C(c3ccc(-n4cnc(C)c4)c(OC)n3)N2)c2cc(Cl)c(F)cc21` (single isomer, unassigned; (+)) [Example 73B, (+)-5-(5-chloro-1-ethyl-6-fluoro-1H-indol-3-yl)-3-(6-methoxy-5-(4-methyl-1H-imidazol-1-yl)pyridin-2-yl)-5,6-dihydro-4H-1,2,4-oxadiazine] had a pEC50 of 8.41. This pEC50 is 1.79 log units higher than that of the compound before.

Compound `COc1nc(C2=NOCC(c3cn(C)c4ccc(C#N)cc34)N2)ccc1-n1cnc(C)c1` (single isomer, unassigned; (+)) [Example 245B, (+)-3-(3-(6-methoxy-5-(4-methyl-1H-imidazol-1-yl)pyridin-2-yl)-5,6-dihydro-4H-1,2,4-oxadiazin-5-yl)-1-methyl-1H-indole-5-carbonitrile] showed a pEC50 of 7.73.

In the case of `COc1nc(C2=NOCC(c3cccc(C#N)c3)N2)ccc1-n1cnc(C)c1` (single isomer, unassigned; (-)) [Example 141A, (−)-3-(3-(6-methoxy-5-(4-methyl-1H-imidazol-1-yl)pyridin-2-yl)-5,6-dihydro-4H-1,2,4-oxadiazin-5-yl) benzonitrile], the pEC50 was less than 5.52.

`COc1nc(C2=NOCC(c3cc4cc(C5CC5)ccc4o3)N2)ccc1-n1cnc(C)c1` (single isomer, unassigned; (-)) [Example 234A, (−)-5-(5-cyclopropylbenzofuran-2-yl)-3-(6-methoxy-5-(4-methyl-1H-imidazol-1-yl)pyridin-2-yl)-5,6-dihydro-4H-1,2,4-oxadiazine]: the pEC50 was 6.37.

Compound `COc1nc(C2=NOCC(c3ccc(C#N)cc3)N2)ccc1-n1cnc(C)c1` (single isomer, unassigned; (-)) [Example 151A, (−)-4-(3-(6-methoxy-5-(4-methyl-1H-imidazol-1-yl)pyridin-2-yl)-5,6-dihydro-4H-1,2,4-oxadiazin-5-yl) benzonitrile] showed a pEC50 of less than 5.52. In turn, `COc1nc(C2=NOCC(c3cc4cc(Cl)ccc4o3)N2)ccc1-n1cnc(C)c1` (single isomer, unassigned; (+)) [Example 57B, (+)-5-(5-chlorobenzofuran-2-yl)-3-(6-methoxy-5-(4-methyl-1H-imidazol-1-yl)pyridin-2-yl)-5,6-dihydro-4H-1,2,4-oxadiazine] had a pEC50 of 7.75. The compound `COc1nc(C2=NOCC(c3cn(C)c4ccc(C5CC5)cc34)N2)ccc1-n1cnc(C)c1` (single isomer, unassigned; (-)) [Example 221A, (−)-5-(5-cyclopropyl-1-methyl-1H-indol-3-yl)-3-(6-methoxy-5-(4-methyl-1H-imidazol-1-yl)pyridin-2-yl)-5,6-dihydro-4H-1,2,4-oxadiazine] showed a pEC50 of 7.22.
